According to ChEMBL document CHEMBL5357021, “Novel Triazolopyridine-Based BRD4 Inhibitors as Potent HIV-1 Latency Reversing Agents” (ACS Med Chem Lett, 2024):
Calls of active or inactive are those of the source. No cut-off for these calls is given here.

Experiments:
[1] = test system: Human immunodeficiency virus 1; assay: Anti-HIV activity against HIV-1IIIB acute infected in human C8166 cells assessed as inhibition of p24 expression at 25 nM incubated for 72 hrs by ELISA assay in presence of N-(4-(2,4-difluorophenoxy)-3-(3-methyl-[1,2,4]triazolo[4,3-a]pyridin-6-yl)phenyl)-4-fluorobenzenesulfonamide; format: functional, organism-based
C8166 = assay: Anti-HIV activity against HIV-1IIIB acute infected in human C8166 cells assessed as inhibition of p24 expression at 1 nM incubated for 72 hrs by ELISA assay in presence of N-(4-(2,4-difluorophenoxy)-3-(3-methyl-[1,2,4]triazolo[4,3-a]pyridin-6-yl)phenyl)-4-fluorobenzenesulfonamide; format: functional, cell-based
[2] = target: Bromodomain-containing protein 4 (Homo sapiens) (UniProt O60885); assay: Inhibition of BRD4 phosphorylation in human J-Lat A10.6 cells contains HIV-1 long terminal repeats (LTR)-Tat-GFP at 1 uM measured after 24 hrs by Western blotting analysis; format: cell-based; conditions: J-Lat 10.6
[3] = target: Bromodomain-containing protein 4 (Homo sapiens) (UniProt O60885); assay: Inhibition of BRD4 in human J-Lat 10.6 cells contains HIV-1 long terminal repeats (LTR)-Tat-GFP assessed as increased CDK9 enrichment in LTR at 1 uM incubated for 6 hrs by ChiP assay; format: cell-based
[4] = target: Bromodomain-containing protein 4 (Homo sapiens) (UniProt O60885); assay: Inhibition of BRD4 in human J-Lat 10.6 cells contains HIV-1 long terminal repeats (LTR)-Tat-GFP assessed as increased RNA pol II enrichment in LTR at 1 uM incubated for 6 hrs by ChiP assay; format: cell-based
[5] = test system: Human immunodeficiency virus 1; assay: Reversal of HIV-1 latency in ACH-2 cell line contains complete HIV-1 provirus assessed as reactivation by measuring HIV-1 p24 antigen expression 5 uM measured after 48 hrs by ELISA; format: functional, organism-based
[6] = target: Bromodomain-containing protein 4 (Homo sapiens) (UniProt O60885); assay: Inhibition of BRD4 BD1 domain (unknown origin) at 1 uM by HTRF assay
[7] = target: Bromodomain-containing protein 4 (Homo sapiens) (UniProt O60885); assay: Inhibition of BRD4 BD2 domain (unknown origin) at 1 uM by HTRF assay
PBMC [8] = assay: Immune hyper-activation in human PBMC cells assessed as CD25 expression at 1 uM measured after 48 hrs by flow cytometry; format: toxicity, cell-based
PBMC [9] = assay: Immune hyper-activation in human PBMC cells assessed as CD69 expression at 1 uM measured after 48 hrs by flow cytometry; format: toxicity, cell-based
PBMC [10] = assay: Immune hyper-activation in human PBMC cells assessed as HLA-DR expression at 1 uM measured after 48 hrs by flow cytometry; format: toxicity, cell-based
[11] = test system: Human immunodeficiency virus 1; assay: Reversal of HIV-1 latency in CD4+ T-lymphoid J-Lat cells contains HIV-1 long terminal repeats (LTR)-Tat-GFP assessed as reactivation measured after 48 hrs by flow cytometry; format: functional, organism-based; conditions: Human immunodeficiency virus 1, J-Lat 10.6, 48 h
[12] = Cytotoxicity against human non-infected J-Lat A10.6 cells assessed as cell death by CCK8 assay; format: toxicity, cell-based, J-Lat 10.6
PBMC [13] = assay: Immune hyper-activation in human PBMC cells assessed as CD25 expression at 10 uM measured after 48 hrs by flow cytometry; format: toxicity, cell-based
PBMC [14] = assay: Immune hyper-activation in human PBMC cells assessed as CD69 expression at 10 uM measured after 48 hrs by flow cytometry; format: toxicity, cell-based
PBMC [15] = assay: Immune hyper-activation in human PBMC cells assessed as HLA-DR expression at 10 uM measured after 48 hrs by flow cytometry; format: toxicity, cell-based
[16] = target: Bromodomain-containing protein 4 (Homo sapiens) (UniProt O60885); assay: Inhibition of BRD4 phosphorylation in human J-Lat A10.6 cells contains HIV-1 long terminal repeats (LTR)-Tat-GFP at 2 to 50 uM measured after 24 hrs by Western blotting analysis; format: cell-based; conditions: J-Lat 10.6, dose 2-50 µM
[17] = target: Bromodomain-containing protein 4 (Homo sapiens) (UniProt O60885); assay: Inhibition of human BRD4 in J-lat 10.6 cells contains HIV-1 long terminal repeats (LTR)-Tat-GFP assessed as cyclin T1 expression at 2 to 50 uM measured after 24 hrs by Western blot analysis; format: cell-based; conditions: dose 2-50 µM
[18] = target: Bromodomain-containing protein 4 (Homo sapiens) (UniProt O60885); assay: Inhibition of human BRD4 in J-lat 10.6 cells contains HIV-1 long terminal repeats (LTR)-Tat-GFP assessed as CDK9 expression at 2 to 50 uM measured after 24 hrs by Western blot analysis; format: cell-based; conditions: dose 2-50 µM
[19] = target: Bromodomain-containing protein 4 (Homo sapiens) (UniProt O60885); assay: Inhibition of human BRD4 in J-lat 10.6 cells contains HIV-1 long terminal repeats (LTR)-Tat-GFP assessed as phosphorylated CDK9 expression at 2 to 50 uM measured after 24 hrs by Western blot analysis; format: cell-based; conditions: dose 2-50 µM
[20] = target: Bromodomain-containing protein 4 (Homo sapiens) (UniProt O60885); assay: Inhibition of human BRD4 recruitment in J-Lat A10.6 cells contains HIV-1 long terminal repeats (LTR) assessed as reduction of BRD4 and HIV-1 LTR interaction at 10 uM incubated for 6 hrs by CHIP assay; format: cell-based; conditions: J-Lat 10.6
[21] = target: Bromodomain-containing protein 4 (Homo sapiens) (UniProt O60885); assay: Inhibition of BRD4 in human J-Lat 10.6 cells contains HIV-1 long terminal repeats (LTR)-Tat-GFP assessed as increased CDK9 enrichment in LTR at 10 uM incubated for 6 hrs by ChiP assay; format: cell-based
[22] = target: Bromodomain-containing protein 4 (Homo sapiens) (UniProt O60885); assay: Inhibition of BRD4 in human J-Lat 10.6 cells contains HIV-1 long terminal repeats (LTR)-Tat-GFP assessed as increased RNA pol II enrichment in LTR at 10 uM incubated for 6 hrs by ChiP assay; format: cell-based
[23] = test system: Human immunodeficiency virus 1; assay: Synergistic reversal of HIV-1 latency in human J-Lat 10.6 cells contains HIV-1 long terminal repeats (LTR)-Tat-GFP assessed as increase in GFP-positive cells by measuring combination index at 10 uM incubated for 48 hrs in presence of Prostratin by flow cytometry; format: functional
[24] = Synergistic reversal of HIV-1 latency in human J-Lat 10.6 cells contains HIV-1 long terminal repeats (LTR)-Tat-GFP assessed as increase in GFP-positive cells by measuring combination index at 10 uM incubated for 48 hrs in presence of N1-hydroxy-N8-phenyloctanediamide by flow cytometry; format: functional, Human immunodeficiency virus 1
J-Lat 10.6 [25] = assay: Reversal of HIV-1 latency in human J-Lat10.6 cells contains HIV-1 long terminal repeats (LTR)-Tat-GFP assessed as reactivation measured at 10 uM after 48 hrs in presence of raltegravir by flow cytometry; format: functional, cell-based; conditions: Human immunodeficiency virus 1
J-Lat 10.6 [26] = assay: Reversal of HIV-1 latency in human J-Lat10.6 cells contains HIV-1 long terminal repeats (LTR)-Tat-GFP assessed as reactivation measured at 10 uM after 48 hrs in presence of Efavirenz by flow cytometry; format: functional, cell-based; conditions: Human immunodeficiency virus 1
J-Lat 10.6 [27] = assay: Reversal of HIV-1 latency in human J-Lat10.6 cells contains HIV-1 long terminal repeats (LTR)-Tat-GFP assessed as reactivation measured at 10 uM after 48 hrs in presence of darunavir by flow cytometry; format: functional, cell-based; conditions: Human immunodeficiency virus 1
PBMC [28] = assay: Cytotoxicity against human PBMC cells assessed as cell viability measured after 48 hrs by MTT assay; format: toxicity, cell-based
[29] = Cytotoxicity against human J-Lat A10.6 cells infected with HIV-1 assessed as cell viability measured after 48 hrs by MTT assay; format: toxicity, cell-based; conditions: j-lat 10.6, 48 h
ACH-2 cell line = assay: Cytotoxicity against human ACH-2 cell line cells infected with HIV-1 assessed as cell viability measured after 48 hrs by MTT assay; format: toxicity, cell-based; conditions: ach-2, 48 h
[30] = Cytotoxicity against human OM10.1 cells infected with HIV-1 assessed as cell viability measured after 48 hrs by MTT assay; format: toxicity, cell-based; conditions: om10.1, 48 h
[31] = Effect on CXCR4 expression in human PBMC cells at 10 uM incubated for 48 hrs by flow cytometry; format: toxicity, cell-based
[32] = Effect on CXCR5 expression in human PBMC cells at 10 uM incubated for 48 hrs by flow cytometry; format: toxicity, cell-based
PBMC [33] = assay: Effect on CXCR4 expression in human PBMC cells at 1 uM incubated for 48 hrs by flow cytometry; format: functional, cell-based
PBMC [34] = assay: Effect on CXCR5 expression in human PBMC cells at 1 uM incubated for 48 hrs by flow cytometry; format: functional, cell-based
[35] = test system: Human immunodeficiency virus 1; assay: Anti-HIV activity against HIV-1IIIB acute infected in human C8166 cells assessed as inhibition of p24 expression at 50 nM incubated for 72 hrs by ELISA assay in presence of N-(4-(2,4-difluorophenoxy)-3-(3-methyl-[1,2,4]triazolo[4,3-a]pyridin-6-yl)phenyl)-4-fluorobenzenesulfonamide; format: functional, organism-based

## CC(C)CN(C[C@@H](O)[C@H](Cc1ccccc1)NC(=O)O[C@H]1CO[C@H]2OCC[C@H]21)S(=O)(=O)c1ccc(N)cc1
[1]
  Activity: Active

## O=C1Nc2ccc(Cl)cc2[C@@](C#CC2CC2)(C(F)(F)F)O1
C8166
  Activity: Active

## Cc1csc2c1C(c1ccc(Cl)cc1)=N[C@@H](CC(=O)OC(C)(C)C)c1nncn1-2 (racemic)
[2]
  inhibition: Active
[3]
  inhibition: Active
[4]
  inhibition: Active
[5]
  Activity: Active
[6]
  inhibition: Active
[7]
  inhibition: Active
PBMC [8]
  Activity: Non-Toxic
PBMC [9]
  Activity: Non-Toxic
PBMC [10]
  Activity: Non-Toxic

## Cc1nnc2ccc(-c3cc(NS(=O)(=O)c4ccc(F)cc4)ccc3Oc3ccc(F)cc3F)cn12
[11]
  EC50: 1.6 µM
[12]
  CC50: > 50 µM
PBMC [13]
  Activity: Non-Toxic
PBMC [14]
  Activity: Non-Toxic
PBMC [15]
  Activity: Non-Toxic
[16]
  inhibition: Active
[17]
  inhibition: inactive
[18]
  inhibition: inactive
[19]
  inhibition: Active
[20]
  inhibition: Active
[21]
  inhibition: Active
[22]
  inhibition: Active
[23]
  CI: 0.1
[24]
  CI: 0.1
J-Lat 10.6 [25]
  Activity: Active
J-Lat 10.6 [26]
  Activity: Active
J-Lat 10.6 [27]
  Activity: Active
[5]
  Activity: Active
PBMC [28]
  Activity: Non-Toxic
[29]
  Activity: Non-Toxic
ACH-2 cell line
  Activity: Non-Toxic
[30]
  Activity: Non-Toxic
[6]
  inhibition: Active
[7]
  inhibition: Active
[31]
  Activity: Not Active
[32]
  Activity: Not Active
PBMC [33]
  Activity: inactive
PBMC [34]
  Activity: inactive

## Cc1nnc(C(=O)NC(C)(C)c2nc(C(=O)NCc3ccc(F)cc3)c(O)c(=O)n2C)o1
[35]
  Activity: Active

## Cc1nnc2ccc(-c3cc(NS(=O)(=O)c4cccs4)ccc3Oc3ccc(F)cc3F)cn12
[11]
  EC50: 6.6 µM
[12]
  CC50: > 50 µM
[5]
  Activity: Active
[6]
  inhibition: Active
[7]
  inhibition: Active
